Results from US20230364204A1, “Bioactive Peptides, Compositions, Production Process, and Use of Bioactive Peptides as Anti-Tumoral Agents” (priority 2022, published 2023).

Tested on: HDFa benign cell line
Assay: BrdU cellular proliferation, benign cells
Assay type: cell-based
Settings: maximum time of exposure
Procedure: The method of Bomodeoxyuridine (BrdU) quantification was carried out according to the Standard Operational Protocols Nos. 10 and 12 of the Laboratory of Clinical Cytology of the Faculty of Pharmaceutical Sciences of Ribeirao Preto (FCFRP -USP). In this method, for the BrdU quantification, cells were plated in 96-well sterile plates for cell culture with a cap at the density of 2 × 10^4 cells/well for treatments lasting 24 h and 1 × 10^4 cells/well for treatments with 48 h or more, completing the volume to 100 µL with culture medium. The plates were incubated for 8-16 h in an incubator at 37° C. and 5% CO2. The next day, the treatments were prepared in culture medium, applying 200 µL/well at the desired concentration, and the plates were placed in an incubator at 37° C. and 5% CO2 for the duration of treatment. After the treatment period, 20 µL/well of a BrdU-labeling was added and incubated at 37° C. and 5% CO2 for 2.5 h. After incubation with BrdU labeling, the plates were stored at 2-4° C. up to 1 week. […] Substrate was developed for 15 minutes and reaction was stopped with HCl 6 M solution and read in a spectrophotometer at 495 nm with endpoint.
The calculation of cell proliferation was performed using the formula: […]
O.D.: optical density captured by spectrophotometer NOTE: The Basal O.D. is the one found in the blank wells. […]

## CSCC[C@H](N)C(=O)N[C@@H](Cc1ccccc1)C(=O)N[C@@H](Cc1ccc(O)cc1)C(=O)N1CCC[C@H]1C(=O)N[C@@H](CC(=O)O)C(=O)N[C@@H](CO)C(=O)N[C@@H](CCCNC(=N)N)C(=O)N[C@@H](CS)C(=O)N[C@@H](CCCNC(=N)N)C(=O)NCC(=O)N1CCC[C@H]1C(=O)N[C@@H](CO)C(=O)N[C@@H](CCC(=O)O)C(=O)N[C@H](C(=O)O)[C@@H](C)O [3-NAntC, [H]-MFYPDSRCRGPSET-[OH]]
  effect on proliferation of benign cells (BrdU): did not alter the proliferation
